The record followed here is patent US8293261B2, “Intravascular implant” (Terumo Kabushiki Kaisha, priority 2005, dated 2012).

The series has as its system human vascular smooth muscle cells. Type of series: cell-based. The note with it: for IC50: human vascular smooth muscle cells, 48 hours with substance, WST-1 absorbance at 450 nm. On the procedure: Substances indicated in Table 1 were used to carry out a cell cytotoxicity test using human vascular smooth muscle cells.
More particularly, human vascular smooth muscle cells were implanted into individual wells of a 96-well microtitor plate along with a culture solution (commercial name: SmGM-2 Bullet kit, made by Cambrex Corporation), followed by cultivation in a carbon dioxide gas incubator at 37° C. for 48 hours. The culture solution dissolving MgCl2 that was used as a chemical substance to be tested was added thereto in every […] so that a final concentration was at 1×10^−7 to 10^−1 M, followed by cultivation for further 48 hours.
Next, WST-1 (La Roche Ltd.) was added, followed by cultivation for 4 hours. WST-1 taken in the human vascular smooth muscle cells was extracted, and the absorbance at 450 nm of the resulting extract was measured by means of a microreader (commercial name: iEMS reader MF, made by Labsystems Inc.). It will be noted that WST-1 taken in the human vascular smooth muscle cells emits light when oxidized and reduced by means of an electron transmission system of mitochondria. Accordingly, WST-1 emits light by reaction only with living cells.
A graph was made wherein an abscissa indicates a concentration of a chemical substance to be subjected to the cytotoxicity test and an ordinate indicates a ratio of a quantity of emitted light of cells subjected to treatment with a chemical substance to be tested to a quantity of emitted light of non-treated cells for reference. The degree of cell cytotoxicity was quantified as a concentration of a chemical substance (IC50 value) at which a ratio of a quantity of a dye taken in the treated cells to a quantity of a dye taken in non-treated cells was at 50%.
Such a test was carried out with respect to other types of chemical substances (NdCl2, GdCl2, Ycl3, CrCl2, and NiCl2) to be subjected to the cytotoxicity test to likewise obtain IC50 values.

In the case of `[Cl][Cr][Cl]` [CrCl2], the IC50 is 0.11 mM.
For the molecule `[Cl][Gd][Cl]` [GdCl2], the “cell cytotoxicity (in words)” value is “very low” and the IC50 amounted to 81 mM.
The corresponding values for `[Cl-].[Cl-].[Mg+2]` [MgCl2] are “very low” and 34 mM.
Turning to `[Cl-].[Cl-].[Nd+2]` [NdCl2], the “cell cytotoxicity (in words)” value is listed as “very low” and half-maximal inhibition (IC50) was put at 74 mM.
For the molecule `[Cl][Ni][Cl]` [NiCl2], the half-maximal inhibitory concentration (IC50) worked out at 0.75 mM.
`[Cl-].[Cl-].[Cl-].[Y+3]` [Ycl3] came in with a half-inhibitory concentration (IC50) of 0.36 mM.

As usually defined, the IC50 is the concentration at which inhibition is half-maximal. Read a low IC50 as greater potency in that assay.
